From US10208071B2, “Use of agonists of formyl peptide receptor 2 for treating ocular inflammatory diseases” (Allergan, Inc., priority 2013, dated 2019) come the findings set out here.

Structures are written as SMILES.

In assay [1] the target is T1, FPR2 (Homo sapiens (Human), UniProt P25090). The assay is described as follows: FPR2 Ga16-CHO EC50 (efficacy), Tables 1-3. The format is cell-based. The note with it: for FPR2 Ga16-CHO (efficacy): efficacy in parentheses.
The target in assay [2] is T1, FPR2. The assay is described as follows: FLIPR Ca+2 response, HEK-Gα16 cells stably expressing the human FPR2 receptor (Table 4). The class given is cell-based. The note with it: for FPR2 (efficacy): efficacy in parentheses. The gist of the method:
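HEK-Gα16 cells stably expressing human FPR2, loaded with 2 μM Fluo-4 in HBSS/20 mM HEPES for 40 min at 37° C., then washed. Ligands added in HBSS/Hepes and Ca+2 responses recorded on FLIPR in relative fluorescence units.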

T1 sequence (P25090 whole entry): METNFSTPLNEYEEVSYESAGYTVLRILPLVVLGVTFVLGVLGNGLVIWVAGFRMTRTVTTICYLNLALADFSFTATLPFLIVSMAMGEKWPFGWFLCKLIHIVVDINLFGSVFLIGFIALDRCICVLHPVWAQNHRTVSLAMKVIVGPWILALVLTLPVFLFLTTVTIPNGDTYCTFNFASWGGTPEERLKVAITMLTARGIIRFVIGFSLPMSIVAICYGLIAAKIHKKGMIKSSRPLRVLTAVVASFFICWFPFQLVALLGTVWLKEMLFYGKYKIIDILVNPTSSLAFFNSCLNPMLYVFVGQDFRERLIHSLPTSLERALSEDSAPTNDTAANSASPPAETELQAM

As for `CC1(CCc2ccccc2)NC(=O)N(NC(=O)Nc2ccccc2F)C1=O` (centres unmarked) [1-(2-fluorophenyl)-3-[4-methyl-2,5-dioxo-4-(2-phenylethyl)imidazolidin-1-yl]urea], on FPR2 [1], the EC50 (usually the concentration needed to bring the measured effect to its halfway point) came to 258 nM and the “FPR2 Ga16-CHO (efficacy)” value is “nM (0.94)”.
The matching figures for `O=C(Nc1ccc(Cl)cc1)NN1C(=O)NC2(CCCCC2)C1=O` [1-(4-chlorophenyl)-3-(2,4-dioxo-1,3-diazaspiro[4,5]decan-3-yl) urea]: 49 nM and “nM (0.98)”.
On the same counts, the results for `CCC1(C)NC(=O)N(NC(=O)Nc2ccc(Cl)cc2)C1=O` (centres unmarked) [1-(4-chlorophenyl)-3-(4-ethyl-4-methyl-2,5-dioxoimidazolidin-1-yl)urea] are 157 nM and “nM (0.96)”.
The matching figures for `Cc1ccc(NC(=O)NN2C(=O)NC3(CCC(C)CC3)C2=O)cc1` (centres unmarked) [1-(8-methyl-2,4-dioxo-1,3-diazaspiro[4,5]decan-3-yl)-3-(p-tolypurea]: 363 nM and “nM (0.91)”.
Turning to `CSc1ccc(NC(=O)N[C@@H](CC(C)C)C(=O)O)cc1` [Compound 128, (2S)-4-methyl-2-({[4-(methylsulfanyl)phenyl]carbamoyl}amino)pentanoic acid], at FPR2 [2], a half-maximal effect (EC50) was put at 16.8 nM and the “FPR2 (efficacy)” value is listed as “nM (0.92)”.
On the same counts, the results for `CSc1ccc(NC(=O)N[C@@H](CC(C)C)C(=O)NCC(=O)O)cc1` [Compound 130, {[(2S)-4-methyl-2-({[4-(methylsulfanyl)phenyl]carbamoyl}amino)pentanoyl]amino} acetic acid] are 3 nM and “nM (1.0)”.
With `CC(C)C[C@H](NC(=O)Nc1ccc(Br)cc1)C(=O)NCP(=O)(OC(C)C)OC(C)C` [Compound 131, dipropan-2-yl ({[(2S)-2-{[(4-bromophenyl)carbamoyl]amino}-4-methylpentanoyl]amino}methyl)phosphonate], the “FPR2 (efficacy)” value at FPR2 [2] is listed as “nM (1.0)”.
For the compound `CC(C)C1(CO)NC(=O)N(NC(=O)Nc2ccc(Br)cc2)C1=O` (centres unmarked) [Compound 132, 1-(4-bromophenyl)-3-[4-(hydroxymethyl)-2,5-dioxo-4-(propan-2-yl)imidazolidin-1-yl]urea], on FPR2 [2], the response was half-maximal at 16.2 nM (EC50) and the “FPR2 (efficacy)” value is “nM (0.86)”.
Turning to `CC(C)C1(CC(=O)NCCO)NC(=O)N(NC(=O)Nc2ccc(Br)cc2)C1=O` (centres unmarked) [Compound 133, 2-[1-{[(4-bromophenyl)carbamoyl]amino}-2,5-dioxo-4-(propan-2-yl)imidazolidin-4-yl]-N-(2-hydroxyethyl)acetamide], on FPR2 [2], the EC50 was determined as 2.7 nM and the “FPR2 (efficacy)” value is recorded as “nM (1.0)”.
`CCOP(=O)(CNC(=O)[C@H](CC(C)C)NC(=O)Nc1ccc(C(F)(F)F)cc1)OCC` [Compound 134, diethyl ({[(2S)-4-methyl-2-({[4-(trifluoromethyl)phenyl]carbamoyl}amino)pentanoyl]amino}methyl)phosphonate]: at FPR2 [2], the EC50 is 5.5 nM and the “FPR2 (efficacy)” value is reported as “nM (0.97)”.
The matching figures for `CCOP(=O)(O)CNC(=O)[C@H](CC(C)C)NC(=O)Nc1ccc(C(F)(F)F)cc1` [Compound 135, ethyl hydrogen ({[(2S)-4-methyl-2-({[4-(trifluoromethyl)phenyl]carbamoyl}amino)pentanoyl]amino}methyl)phosphonate]: 1.9 nM and “nM (0.91)”.
The matching figures for `CC(C)C[C@H](NC(=O)Nc1ccc(C(F)(F)F)cc1)C(=O)NCc1nnn[nH]1` [Compound 136, (2S)-4-methyl-N-(1H-tetrazol-5-ylmethyl)-2-({[4-(trifluoromethyl)phenyl]carbamoyl}amino)pentanamide]: 3.7 nM and “nM (0.96)”.
Regarding `CCOP(=O)(CNC(=O)[C@H](CC(C)C)NC(=O)Nc1ccc(SC)cc1)OCC` [Compound 138, diethyl ({[(2S)-4-methyl-2-({[4-(methylsulfanyl)phenyl]carbamoyl}amino)pentanoyl]amino}methyl)phosphonate], on FPR2 [2], the EC50 was found to be 3.5 nM and the “FPR2 (efficacy)” value is “nM (0.91)”.
Take `CC(C)C[C@H](NC(=O)Nc1ccc(C(F)(F)F)cc1)C(=O)NC(C)(C)C(=O)O` [Compound 139, 2-methyl-2-{[(2S)-4-methyl-2-({[4-(trifluoromethyl)phenyl]carbamoyl}amino)pentanoyl]amino} propanoic acid]: at FPR2 [2], the EC50 came to 2.5 nM and the “FPR2 (efficacy)” value is recorded as “nM (0.92)”.
The matching figures for `CCC1(CCc2ccccc2C(=O)OC)NC(=O)N(NC(=O)Nc2ccc(Br)cc2)C1=O` (centres unmarked) [Compound 141, methyl 2-[2-(1-{[(4-bromophenyl)carbamoyl]amino}-4-ethyl-2,5-dioxoimidazolidin-4-yl)ethyl]benzoate]: 10.3 nM and “nM (0.92)”.
The matching figures for `CC(C)C1(CC(=O)NC(CO)CO)NC(=O)N(NC(=O)Nc2ccc(Br)cc2)C1=O` (centres unmarked) [Compound 142, 2-[1-{[(4-bromophenyl)carbamoyl]amino}-2,5-dioxo-4-(propan-2-yl)imidazolidin-4-yl]-N-(1,3-dihydroxypropan-2-yl)acetamide]: 13.8 nM and “nM (0.92)”.
The matching figures for `CCC1(CCc2ccccc2C(=O)O)NC(=O)N(NC(=O)Nc2ccc(Br)cc2)C1=O` (centres unmarked) [Compound 143, 2-[2-(1-{[(4-bromophenyl)carbamoyl]amino}-4-ethyl-2,5-dioxoimidazolidin-4-yl)ethyl]benzoic acid]: 17.2 nM and “nM (1.0)”.
For `CSCC[C@H](NC(=O)Nc1ccc(Br)cc1)C(=O)NCC(=O)O` [Compound 144, {[(2S)-2-{[(4-bromophenyl)carbamoyl]amino}-4-(methylsulfanyl)butanoyl]amino} acetic acid], at FPR2 [2], the EC50 was found to be 6.3 nM and the “FPR2 (efficacy)” value was “nM (0.91)”.
The matching figures for `CC(C)C1(CC(=O)NCCC(=O)O)NC(=O)N(NC(=O)Nc2ccc(Br)cc2F)C1=O` (centres unmarked) [Compound 145, 3-({[-{[(4-bromo-2-fluorophenyl)carbamoyl]amino}-2,5-dioxo-4-(propan-2-yl)imidazolidin-4-yl]acetyl}amino)propanoic acid]: 1 nM and “nM (1.0)”.
On the same counts, the results for `CCC1(CCc2ccccc2C(=O)O)NC(=O)N(NC(=O)Nc2ccc(Br)cc2F)C1=O` (centres unmarked) [Compound 146, 2-[2-(1-{[(4-bromo-2-fluorophenyl)carbamoyl]amino}-4-ethyl-2,5-dioxoimidazolidin-4-yl)ethyl]benzoic acid] are 11.1 nM and “nM (1.0)”.
The matching figures for `CC(C)C1(CC(=O)NCCC(=O)O)NC(=O)N(NC(=O)Nc2ccc(Br)cc2)C1=O` (centres unmarked) [Compound 147, 3-({[1-{[(4-bromophenyl)carbamoyl]amino}-2,5-dioxo-4-(propan-2-yl)imidazolidin-4-yl]acetyl}amino)propanoic acid]: 3.9 nM and “nM (0.99)”.
For the compound `CC(C)C1(CC(=O)NCCO)NC(=O)N(NC(=O)Nc2ccc(Br)cc2F)C1=O` (centres unmarked) [Compound 148, 2-[1-{[(4-bromo-2-fluorophenyl)carbamoyl]amino}-2,5-dioxo-4-(propan-2-yl)imidazolidin-4-yl]-N-(2-hydroxyethyl)acetamide], at FPR2 [2], a half-maximal response (EC50) required 6.9 nM and the “FPR2 (efficacy)” value was “nM (0.98)”.
As for `CCOC(=O)CCC1(C(C)C)NC(=O)N(NC(=O)Nc2ccc(Br)cc2)C1=O` (centres unmarked) [Compound 149, ethyl 3-[1-{[(4-bromophenyl)carbamoyl]amino}-2,5-dioxo-4-(propan-2-yl)imidazolidin-4-yl]propanoate], at FPR2 [2], a half-maximal response (EC50) required 6.6 nM and the “FPR2 (efficacy)” value is listed as “nM (0.94)”.
The matching figures for `O=C(O)CNC(=O)C(Cc1c[nH]c2ccccc12)NC(=O)Nc1ccc(Br)cc1` (centres unmarked) [Compound 150, {[2-{[(4-bromophenyl)carbamoyl]amino}-3-(1H-indol-3-yl)propanoyl]amino}acetic acid]: 1.4 nM and “nM (0.98)”.
On the same counts, the results for `CC(C)C1(CCc2ccccc2C(=O)O)NC(=O)N(NC(=O)Nc2ccc(Br)cc2)C1=O` (centres unmarked) [Compound 151, 2-{2-[1-{[(4-bromophenyl)carbamoyl]amino}-2,5-dioxo-4-(propan-2-yl)imidazolidin-4-yl]ethyl}benzoic acid] are 5.8 nM and “nM (1.0)”.
On the same counts, the results for `CCOP(=O)(CCNC(=O)CC1(C(C)C)NC(=O)N(NC(=O)Nc2ccc(Br)cc2)C1=O)OCC` (centres unmarked) [Compound 152, diethyl [2-({[1-{[(4-bromophenyl)carbamoyl]amino}-2,5-dioxo-4-(propan-2-yl)imidazolidin-4-yl]acetyl}amino)ethyl] phosphonate] are 11 nM and “nM (1.0)”.
Regarding `CCOC(=O)C1CCC2(CC1)NC(=O)N(NC(=O)Nc1ccc(Br)cc1)C2=O` (centres unmarked) [Compound 153, ethyl 3-{[(4-bromophenyl)carbamoyl]amino}-2,4-dioxo-1,3-diazaspiro[4.5]decane-8-carboxylate], on FPR2 [2], the EC50 is 12 nM and the “FPR2 (efficacy)” value is recorded as “nM (0.99)”.
The matching figures for `CC(C)C[C@H](NC(=O)Nc1ccc(Br)cc1)C(=O)N(C)CC(=O)OC(C)(C)C` [Compound 154, tert-butyl {[(2S)-2-{[(4-bromophenyl)carbamoyl]amino}-4-methylpentanoyl](methyl)amino} acetate]: 12 nM and “nM (0.85)”.
For the compound `CC(C)C[C@H](NC(=O)Nc1ccc(Br)cc1)C(=O)N(C)CC(=O)O` [Compound 155, {[(2S)-2-{[(4-bromophenyl)carbamoyl]amino}-4-methylpentanoyl](methyl)amino} acetic acid], at FPR2 [2], the midpoint of the response, the EC50, lay at 1 nM and the “FPR2 (efficacy)” value was “nM (1.0)”.
The matching figures for `CC(C)C[C@H](NC(=O)Nc1ccc(C(F)(F)F)cc1)C(=O)NCS(=O)(=O)O` [Compound 237, {[(2S)-4-methyl-2-({[4-(trifluoromethyl)phenyl]carbamoyl}amino)pentanoyl]amino} methanesulfonic acid]: 1.9 nM and “nM (0.99)”.
